This note sets out measurements from PubChem BioAssay (NCI).

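48-hour exposure; five concentrations; linearly interpolated endpoints. TGI denotes the concentration required for complete inhibition of growth.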 Some results are limits rather than exact numbers.

Test systems include OVCAR-5 ovarian; SW-620 colon; EKVX NSCLC; SN12C renal; HOP-92 NSCLC; MDA-MB-435; NCI-H522 lung; U251 CNS; MOLT-4 leukemia; PC-3 prostate; SF-295 CNS; HCT-116 colon; UO-31 renal; NCI/ADR-RES ovarian; SNB-19 CNS; MCF7 breast; HT29 colon; MDA-MB-231 breast.
Holding throughout (assay): DTP human tumour cell line panel, 48 h

As for `O=S1SC(=S)C2C=CC=NC21` (stereo not drawn), the total growth inhibition concentration (TGI) was 28.6 µM in the experiment on OVCAR-5 ovarian; more than 100 µM with SW-620 colon; 26.1 µM in the experiment with EKVX NSCLC; 28.8 µM in the experiment on SN12C renal; 37.6 µM in the experiment with HOP-92 NSCLC; more than 100 µM in the experiment with MDA-MB-435. Besides, the TGI with NCI-H522 lung stood at 53 µM; in the experiment on U251 CNS it was 35.1 µM; in the experiment on MOLT-4 leukemia it was 64.9 µM; in the experiment on PC-3 prostate, 30.5 µM; in the experiment with SF-295 CNS, 62.3 µM; in the experiment on HCT-116 colon, 26.6 µM. Further, the concentration for total growth inhibition (TGI) amounted to 28.4 µM with UO-31 renal; 67.5 µM with NCI/ADR-RES ovarian; 87.9 µM in the experiment with SNB-19 CNS; 38.4 µM in the experiment on MCF7 breast; 30.8 µM in the experiment on HT29 colon; 42.3 µM in the experiment on MDA-MB-231 breast.

In the case of `CC1(C)CC[C@]2(C(=O)O)CC[C@]3(C)C(=CCC4=C5C[C@H](O)[C@H](O)[C@@](C)(CO)[C@@]5(C)CC[C@]43C)[C@@H]2C1`, the concentration for total growth inhibition (TGI) with OVCAR-5 ovarian, in the experiment on SW-620 colon, in the experiment with EKVX NSCLC, in the experiment on SN12C renal, in the experiment on HOP-92 NSCLC and in the experiment with MDA-MB-435 was more than 100 µM each time. Besides, the TGI in the experiment on NCI-H522 lung, in the experiment with U251 CNS, in the experiment with MOLT-4 leukemia, in the experiment on PC-3 prostate, with SF-295 CNS and in the experiment with HCT-116 colon was more than 100 µM in each case. The TGI in the experiment on UO-31 renal, with NCI/ADR-RES ovarian, in the experiment with SNB-19 CNS, in the experiment with MCF7 breast, in the experiment on HT29 colon and with MDA-MB-231 breast was more than 100 µM throughout.

Turning to `CCCCCCCCOC(=O)C12Oc3ccc(-c4ccc5c(c4O)C(O)=C4C(=O)CC(C)C(O)C4(C(=O)OCCCCCCCC)O5)c(O)c3C(O)=C1C(=O)CC(C)C2O` (stereo not drawn), the concentration for total growth inhibition (TGI) in the experiment on OVCAR-5 ovarian was 96.2 µM; with SW-620 colon it was more than 100 µM; in the experiment with EKVX NSCLC, more than 100 µM; in the experiment with SN12C renal it was more than 100 µM; in the experiment on HOP-92 NSCLC it was 42.5 µM; in the experiment with MDA-MB-435, more than 100 µM. Besides, the TGI was 48.2 µM with NCI-H522 lung; 27.5 µM with U251 CNS; 60.6 µM with MOLT-4 leukemia; more than 100 µM in the experiment with PC-3 prostate; 48 µM in the experiment on SF-295 CNS; more than 100 µM in the experiment on HCT-116 colon. Moreover, the TGI was 92.2 µM in the experiment on UO-31 renal; more than 100 µM with NCI/ADR-RES ovarian; 36.8 µM in the experiment with SNB-19 CNS; 44.9 µM in the experiment with MCF7 breast; more than 100 µM with HT29 colon; 59.7 µM in the experiment on MDA-MB-231 breast.

As for `CCCCC(=O)/C=c1/cc(C)[nH]c2cccc3cnn1c32`, the TGI in the experiment with OVCAR-5 ovarian, in the experiment with SW-620 colon, with EKVX NSCLC, in the experiment on SN12C renal, with HOP-92 NSCLC and in the experiment on MDA-MB-435 was more than 100 µM each time. For the same compound, the TGI in the experiment with NCI-H522 lung, with U251 CNS, in the experiment with MOLT-4 leukemia, in the experiment with PC-3 prostate, in the experiment on SF-295 CNS and in the experiment with HCT-116 colon was more than 100 µM throughout. Besides, the TGI in the experiment on UO-31 renal, in the experiment on NCI/ADR-RES ovarian, in the experiment with SNB-19 CNS, in the experiment on MCF7 breast, in the experiment on HT29 colon and in the experiment with MDA-MB-231 breast was more than 100 µM in each case.

With `O=C1Nc2ccc(Br)cc2/C1=N/S(=O)(=O)O`, the concentration for total growth inhibition (TGI) in the experiment on OVCAR-5 ovarian was 79.3 µM; with SW-620 colon, more than 100 µM; with EKVX NSCLC, 85.7 µM; with SN12C renal, 37 µM; with HOP-92 NSCLC, more than 100 µM; with MDA-MB-435, 22.7 µM. The concentration for total growth inhibition (TGI) is more than 100 µM in the experiment with NCI-H522 lung; more than 100 µM in the experiment with U251 CNS; 63.4 µM in the experiment with MOLT-4 leukemia; 83.3 µM in the experiment on PC-3 prostate; more than 100 µM in the experiment on SF-295 CNS; more than 100 µM in the experiment on HCT-116 colon. Also, the concentration for total growth inhibition (TGI) is more than 100 µM in the experiment on UO-31 renal; more than 100 µM with NCI/ADR-RES ovarian; more than 100 µM in the experiment with SNB-19 CNS; 40 µM with MCF7 breast; more than 100 µM in the experiment with HT29 colon; 36 µM in the experiment on MDA-MB-231 breast.

Regarding `O=Cc1ccc2ccocc1-2`, the concentration for total growth inhibition (TGI) in the experiment on OVCAR-5 ovarian, in the experiment with SW-620 colon, in the experiment on EKVX NSCLC, in the experiment with SN12C renal, in the experiment on HOP-92 NSCLC and in the experiment with MDA-MB-435 was more than 100 µM throughout. Moreover, the TGI in the experiment with NCI-H522 lung, in the experiment on U251 CNS, in the experiment with MOLT-4 leukemia, in the experiment on PC-3 prostate, in the experiment with SF-295 CNS and in the experiment with HCT-116 colon was more than 100 µM throughout. Further, the TGI in the experiment with UO-31 renal, in the experiment with NCI/ADR-RES ovarian, with SNB-19 CNS, in the experiment on MCF7 breast, in the experiment on HT29 colon and with MDA-MB-231 breast was more than 100 µM each time.

With `CNc1cc([N+](=O)[O-])ccc1C(=O)N1CCC[C@H]1CO`, the concentration for total growth inhibition (TGI) with OVCAR-5 ovarian, with SW-620 colon, in the experiment on EKVX NSCLC, in the experiment on SN12C renal, in the experiment with HOP-92 NSCLC and in the experiment with MDA-MB-435 was more than 100 µM throughout. The concentration for total growth inhibition (TGI) in the experiment on NCI-H522 lung, in the experiment on U251 CNS, in the experiment on MOLT-4 leukemia, in the experiment on PC-3 prostate, with SF-295 CNS and in the experiment with HCT-116 colon was more than 100 µM each time. Further, the total growth inhibition concentration (TGI) in the experiment with UO-31 renal, with NCI/ADR-RES ovarian, in the experiment with SNB-19 CNS, in the experiment with MCF7 breast, in the experiment on HT29 colon and with MDA-MB-231 breast was more than 100 µM each time.

Consider `COc1ccc(N2C(=O)C(Cl)C2c2cc3cc(Br)ccc3nc2Cl)cc1` (stereo not drawn), for which the TGI in the experiment on OVCAR-5 ovarian is more than 25 µM; with SW-620 colon, 16.2 µM; with EKVX NSCLC it was 9.86 µM; in the experiment with SN12C renal, 12.3 µM; with HOP-92 NSCLC it was 18.3 µM; in the experiment with MDA-MB-435, 10.7 µM. Also, the TGI in the experiment on NCI-H522 lung was 8.33 µM; with MOLT-4 leukemia it was 11.9 µM; with PC-3 prostate it was 21 µM; with SF-295 CNS, more than 25 µM; in the experiment with HCT-116 colon it was 9.51 µM; in the experiment with UO-31 renal it was 2.43 µM. Besides, the total growth inhibition concentration (TGI) is 14.1 µM in the experiment on NCI/ADR-RES ovarian; more than 25 µM with SNB-19 CNS; 13.5 µM with MCF7 breast; 8.84 µM in the experiment on HT29 colon; 9.1 µM with MDA-MB-231 breast.

A word on the TGI: it is the concentration at which net growth stops. Low readings indicate more potent growth arrest, high ones less potent growth arrest.
